From patent US6833249B2, “Quick and sensitive method of quantifying mycolic acid to develop anti-microbial agents and a diagnostic kit thereof” (Council of Scientific and Industrial Research, priority 2002, dated 2004)

Tested on: mycolic acid biosynthesis
Experiment: spectrophotometric assay of mycolic acid (carbol fuchsin complex) from treated M. smegmatis cells
Type: cell-based, Mycobacterium smegmatis
Conditions: for production/synthesis of mycolic acid: Mycobacterium smegmatis treated with the substance, result in words; for absorbance at 495.89 nm: mycolic acid-carbol fuchsin complex in hexane, M. smegmatis grown 48 hrs at sub-lethal concentration (½ MIC): extract 312 μg/ml, thebaine 150 μg/ml, isoniazid 1 μg/ml, untreated control 1.4885
Excerpt: Mycolic acids are branched, β-hydroxy fatty acids which occur in the cell wall of Corynebacterium, Nocardia and Mycobacterium. Their molecular size varies with the genus, i.e., from 30, 50, 80-carbon atoms in the order described above. Because of the correlation between genus and mycolic acid size, the test for this biochemical marker is done in the early stage of the identification of unknown actinomycetes. The method followed in this invention for the extraction of mycolic acid is according to Minniken et al. (1975). After proper growth of the bacteria, the culture is centrifuged at 5000 RPM for 5 minutes and lyophilized. Dry bacteria (100 mg) are mixed with methanol (5 ml), Toluene (5 ml) and concentrated sulphuric acid (0.2 ml) in a 20-ml screw cap tube (poly tetra fluoro ethylene lined). The contents of the tube are mixed thoroughly and methanolysis is allowed to proceed for 12-16 hours at 75° C. (stationary incubation). The reaction mixture is allowed to cool and mycolic acid is extracted by adding 1 ml of hexane. After vigorous mixing the mixture is allowed to settle and the upper hexane layer containing mycolic acid is collected. Samples of the hexane extract were spotted on TLC coated with Merck silica gel H (0.5 mm), along with standard mycolic acid and the chromatogram is developed in petroleum ether: diethyl ether (85:15).
By using this method the mycolic acid produced by the control was quantified as well as treated cells of M. smegmatis with different plant extracts and compounds. Some of the compounds are known to inhibit mycolic acid biosynthesis and others are plant extracts and unknown compounds. The compounds and the extracts were selected on the basis of loosening of acid fast stain in Mycobacterium smegmatis.
The culture of Mycobacterium smegmatis was frown in nutrient broth containing the sub-lethal concentration (½ MIC) of the compounds/extracts for 48 hrs. The cells were harvested by centrifugation and the pellets were lyophilized. Equal amount of the cells (100 mg) were taken both of control and treated cells and kept for methanolysis overnight as described in Example 1. The extracted hexane layer was allowed to dry and a common stock (5 mg/ml) was used to run a TLC plate to determine how much the inhibition of mycolic acid by calculation the amount of produced mycolic acid by a densitometer.
Compounds, which were showing loosening of acid fast staining, were also tested for spectrophotometric assay. The strain of Mycobacterium smegmatis giving 100% acid fast staining was grown for 48 hours in 50 ml culture media. As described earlier treatment of different compounds were given at sub-lethal concentrations in replicates were also grown for 48 hours. […]
The details of the treatments and the absorbance by different treatments are described in Table 2.

| Compound | production/synthesis of mycolic acid | absorbance at 495.89 nm |
| --- | --- | --- |
| NNC(=O)c1ccncc1 [Isoniazid] | does not allow the production of mycolic acid | 0 |
| COC1=CC=C2[C@H]3Cc4ccc(OC)c5c4[C@@]2(CCN3C)[C@H]1O5 [Thebaine] | do not allow the synthesis of mycolic acid | 0 |
